Reference: patent US20070232563A1, “Method for Enhancing Biological Activity and/or Expanding Suitable Region for Biological Activity of Living Body Contacting with Aqueous Environment” (Kabushiki Kaisha Hayashibara Seibutsu Kagaku Kenky, priority 2004, published 2007)

Legend:
[1] = system: short-necked clam (Ruditapes philippinarum); assay: Biological activity of short-necked clam (aqueduct extension score) in aqueous mineral solutions; type: in vivo; conditions: for Judgment score of biological activity: Experiment 2; for Judgment score for biological activity: total of 18 clams, 16 h
Method: Suitable region for biological activity of short-necked clam (Ruditapes philippinarum), as a fish or shellfish living in seawater, was examined by adding various saccharides to mineral aqueous solutions with various concentrations. In detail, solar salt (85% by weight of sodium chloride and 15% by weight of magnesium) as minerals was dissolved in running water kept in a container for two days to give final concentrations described in the following Table 1. Saccharide (any one of D-glucose, maltose, sucrose, maltitol, α,α-trehalose, α-maltosyl α,α-trehalose, maltotetraose and cyclic tetrasaccharide) was dissolved in the resulting salt solutions to give a final concentration of 1 w/v %, on a dry solid basis. Each of the resulting solutions was placed in a plastic bat. Eighteen pre-selected active short-necked clam in one group were placed in the bat. The bat was shaded with a black cloth and left at ambient temperature (18° C.) for 16 hours. As a control, an aqueous solar salt solution without any saccharides was prepared. Saccharides except for α-maltosyl α,α-trehalose as a saccharide derivatives thereof and cyclic tetrasaccharide were chosen from commercialized products. α-Maltosyl α,α-trehalose as saccharide derivatives of α,α-trehalose in a powder form with a purity of 98 w/w % or over was prepared by the method disclosed in Experiment 4 in Japanese Patent Kokai No. 143876/1995. Cyclic tetrasaccharide in a crystalline form with a purity of 98 w/w % or over, on a dry solid basis, was prepared by the method disclosed in Example A-7 in International Patent Publication No. WO02/10361. Influence of various saccharides was judged by observing the degree of extending aqueduct of the shellfish; 3 points: its aqueduct is well extended; 2 points: its aqueduct is slightly extended; 1 point: its aqueduct is not extended but its shells are opened; 0 point: its shells are closed. The effect on biological activity was judged by the total point of 18 shellfishes. To investigate the effective concentration range of α,α-trehalose or α-maltosyl α,α-trehalose against a mineral solution with a concentration of 1.5 w/v % or 4.5 w/v %, where α,α-trehalose or α-maltosyl α,α-trehalose was remarkably effective in Experiment 1, the following experiment using α,α-trehalose or α-maltosyl α,α-trehalose at a concentration of 0.01, 0.1, 1, 2, 3 or 4 w/v % was carried out according to the method in Experiment 1. As a control, mineral aqueous solutions with a concentration of 1.5 w/v % or 4.5 w/v % without any of the saccharides were prepared and carried out in the same manner.

unpolished rice = assay: Germination of unpolished rice in aqueous mineral solution; type: in vivo
Method: Suitable mineral range of aqueous mineral solutions containing saccharides was examined by using unpolished rice as an agricultural product. In detail, a commercialized purified salt as a mineral was dissolved in tap water to give a final concentration of 0.5, 1.0, 1.5, or 2.0 as described in the following Table 6. α,α-Trehalose or α-maltosyl α,α-trehalose was dissolved in the resulting solutions to give a final concentration of 1 w/v %, on a dry solid basis. Absorbent cotton was allowed to absorb the resulting solution in an appropriate amount and placed in a plastic laboratory dish with a cover. Commercialized unpolished rice grains were placed on the cotton in the dish by 20 grains per group and kept at ambient temperature (25° C.) under a light-shaded condition by covering with a black cloth. As controls, an aqueous mineral solution without saccharides, and water without saccharides and minerals were prepared. […] Effective concentration of α,α-trehalose or α-maltosyl α,α-trehalose on expanding suitable region for biological activity of unpolished rice grains were determined by examining the number of germinated unpolished rice grains and germination time as an index in accordance with the method in Experiment 6 in the aqueous mineral solution with mineral concentration of 1.5 w/v %, where α,α-trehalose or α-maltosyl α,α-trehalose was effective in Experiment 6, containing α,α-trehalose or α-maltosyl α,α-trehalose in a concentration of 0.01, 0.1, 1, 2, 3, 4 or 6 w/v %, on a dry solid basis. As a control, water without saccharides or minerals was used.

[2] = mineral 1.5 w/v %, saccharide 1 w/v %
[3] = mineral 4.5 w/v %, saccharide 1 w/v %

What does the source list for OC[C@H]1O[C@H](O[C@H]2O[C@H](CO)[C@@H](O)[C@H](O)[C@H]2O)[C@H](O)[C@@H](O)[C@@H]1O [α,α-Trehalose, α,α-trehalose]?
Judgment score of biological activity ([1]; mineral 1.5 w/v %, saccharide 0.01 w/v %): 19; Judgment score of biological activity ([1]; mineral 1.5 w/v %, saccharide 0.1 w/v %): 38; Judgment score of biological activity [1, 2]: 44; Judgment score of biological activity ([1]; mineral 1.5 w/v %, saccharide 2 w/v %): 47; Judgment score of biological activity ([1]; mineral 1.5 w/v %, saccharide 3 w/v %): 38; Judgment score of biological activity ([1]; mineral 1.5 w/v %, saccharide 4 w/v %): 21; Judgment score of biological activity ([1]; mineral 4.5 w/v %, saccharide 0.01 w/v %): 21; Judgment score of biological activity ([1]; mineral 4.5 w/v %, saccharide 0.1 w/v %): 35; Judgment score of biological activity [1, 3]: 50; Judgment score of biological activity ([1]; mineral 4.5 w/v %, saccharide 2 w/v %): 51; Judgment score of biological activity ([1]; mineral 4.5 w/v %, saccharide 3 w/v %): 31; Judgment score of biological activity ([1]; mineral 4.5 w/v %, saccharide 4 w/v %): 18; Judgment score for biological activity ([1]; mineral 0 w/v %, saccharide 1 w/v %): 12; Judgment score for biological activity ([1]; mineral 0.5 w/v %, saccharide 1 w/v %): 16; Judgment score for biological activity ([1]; mineral 1.0 w/v %, saccharide 1 w/v %): 38; Judgment score for biological activity [1, 2]: 44; Judgment score for biological activity ([1]; mineral 2.0 w/v %, saccharide 1 w/v %): 47; Judgment score for biological activity ([1]; mineral 2.5 w/v %, saccharide 1 w/v %): 51; Judgment score for biological activity ([1]; mineral 3.0 w/v %, saccharide 1 w/v %): 54; Judgment score for biological activity ([1]; mineral 3.5 w/v %, saccharide 1 w/v %): 50; Judgment score for biological activity ([1]; mineral 4.0 w/v %, saccharide 1 w/v %): 50; Judgment score for biological activity [1, 3]: 49; Judgment score for biological activity ([1]; mineral 5.0 w/v %, saccharide 1 w/v %): 34; Judgment score for biological activity ([1]; mineral 5.5 w/v %, saccharide 1 w/v %): 10; Judgment score for biological activity ([1]; mineral 6.0 w/v %, saccharide 1 w/v %): 5; Germinated grains (Number) (unpolished rice; Experiment 7, mineral 1.5 w/v %, saccharide 0.01 w/v %, 48 hours): 0; Germinated grains (Number) (unpolished rice; Experiment 7, mineral 1.5 w/v %, saccharide 0.01 w/v %, 72 hours): 1; Germinated grains (Number) (unpolished rice; Experiment 7, mineral 1.5 w/v %, saccharide 0.01 w/v %, 96 hours): 2; Germinated grains (Number) (unpolished rice; Experiment 7, mineral 1.5 w/v %, saccharide 0.01 w/v %, 120 hours): 3; Germinated grains (Number) (unpolished rice; Experiment 7, mineral 1.5 w/v %, saccharide 0.1 w/v %, 48 hours): 0; Germinated grains (Number) (unpolished rice; Experiment 7, mineral 1.5 w/v %, saccharide 0.1 w/v %, 72 hours): 2; Germinated grains (Number) (unpolished rice; Experiment 7, mineral 1.5 w/v %, saccharide 0.1 w/v %, 96 hours): 5; Germinated grains (Number) (unpolished rice; Experiment 7, mineral 1.5 w/v %, saccharide 0.1 w/v %, 120 hours): 6; Germinated grains (Number) (unpolished rice; Experiment 7, mineral 1.5 w/v %, saccharide 1 w/v %, 48 hours): 1; Germinated grains (Number) (unpolished rice; Experiment 7, mineral 1.5 w/v %, saccharide 1 w/v %, 72 hours): 4; Germinated grains (Number) (unpolished rice; Experiment 7, mineral 1.5 w/v %, saccharide 1 w/v %, 96 hours): 6; Germinated grains (Number) (unpolished rice; Experiment 7, mineral 1.5 w/v %, saccharide 1 w/v %, 120 hours): 6; Germinated grains (Number) (unpolished rice; Experiment 7, mineral 1.5 w/v %, saccharide 2 w/v %, 48 hours): 3; Germinated grains (Number) (unpolished rice; Experiment 7, mineral 1.5 w/v %, saccharide 2 w/v %, 72 hours): 6; Germinated grains (Number) (unpolished rice; Experiment 7, mineral 1.5 w/v %, saccharide 2 w/v %, 96 hours): 7; Germinated grains (Number) (unpolished rice; Experiment 7, mineral 1.5 w/v %, saccharide 2 w/v %, 120 hours): 7; Germinated grains (Number) (unpolished rice; Experiment 7, mineral 1.5 w/v %, saccharide 3 w/v %, 48 hours): 3; Germinated grains (Number) (unpolished rice; Experiment 7, mineral 1.5 w/v %, saccharide 3 w/v %, 72 hours): 6; Germinated grains (Number) (unpolished rice; Experiment 7, mineral 1.5 w/v %, saccharide 3 w/v %, 96 hours): 6; Germinated grains (Number) (unpolished rice; Experiment 7, mineral 1.5 w/v %, saccharide 3 w/v %, 120 hours): 6; Germinated grains (Number) (unpolished rice; Experiment 7, mineral 1.5 w/v %, saccharide 4 w/v %, 48 hours): 1; Germinated grains (Number) (unpolished rice; Experiment 7, mineral 1.5 w/v %, saccharide 4 w/v %, 72 hours): 6; Germinated grains (Number) (unpolished rice; Experiment 7, mineral 1.5 w/v %, saccharide 4 w/v %, 96 hours): 6; Germinated grains (Number) (unpolished rice; Experiment 7, mineral 1.5 w/v %, saccharide 4 w/v %, 120 hours): 6; Germinated grains (Number) (unpolished rice; Experiment 7, mineral 1.5 w/v %, saccharide 6 w/v %, 48 hours): 0; Germinated grains (Number) (unpolished rice; Experiment 7, mineral 1.5 w/v %, saccharide 6 w/v %, 72 hours): 2; Germinated grains (Number) (unpolished rice; Experiment 7, mineral 1.5 w/v %, saccharide 6 w/v %, 96 hours): 2; Germinated grains (Number) (unpolished rice; Experiment 7, mineral 1.5 w/v %, saccharide 6 w/v %, 120 hours): 2; Germinated grains (Number) (unpolished rice; mineral 0.5 w/v %, saccharide 1 w/v %, 24 hours, 20 grains): 0; Germinated grains (Number) (unpolished rice; mineral 0.5 w/v %, saccharide 1 w/v %, 48 hours, 20 grains): 20; Germinated grains (Number) (unpolished rice; mineral 0.5 w/v %, saccharide 1 w/v %, 72 hours, 20 grains): 20; Germinated grains (Number) (unpolished rice; mineral 0.5 w/v %, saccharide 1 w/v %, 96 hours, 20 grains): 20; Germinated grains (Number) (unpolished rice; mineral 0.5 w/v %, saccharide 1 w/v %, 120 hours, 20 grains): 20; Germinated grains (Number) (unpolished rice; mineral 1.0 w/v %, saccharide 1 w/v %, 24 hours, 20 grains): 0; Germinated grains (Number) (unpolished rice; mineral 1.0 w/v %, saccharide 1 w/v %, 48 hours, 20 grains): 17; Germinated grains (Number) (unpolished rice; mineral 1.0 w/v %, saccharide 1 w/v %, 72 hours, 20 grains): 20; Germinated grains (Number) (unpolished rice; mineral 1.0 w/v %, saccharide 1 w/v %, 96 hours, 20 grains): 20; Germinated grains (Number) (unpolished rice; mineral 1.0 w/v %, saccharide 1 w/v %, 120 hours, 20 grains): 20; Germinated grains (Number) (unpolished rice; mineral 1.5 w/v %, saccharide 1 w/v %, 24 hours, 20 grains): 0; Germinated grains (Number) (unpolished rice; mineral 1.5 w/v %, saccharide 1 w/v %, 48 hours, 20 grains): 1; Germinated grains (Number) (unpolished rice; mineral 1.5 w/v %, saccharide 1 w/v %, 72 hours, 20 grains): 4; Germinated grains (Number) (unpolished rice; mineral 1.5 w/v %, saccharide 1 w/v %, 96 hours, 20 grains): 6; Germinated grains (Number) (unpolished rice; mineral 1.5 w/v %, saccharide 1 w/v %, 120 hours, 20 grains): 6; Germinated grains (Number) (unpolished rice; mineral 2.0 w/v %, saccharide 1 w/v %, 24 hours, 20 grains): 0; Germinated grains (Number) (unpolished rice; mineral 2.0 w/v %, saccharide 1 w/v %, 48 hours, 20 grains): 0; Germinated grains (Number) (unpolished rice; mineral 2.0 w/v %, saccharide 1 w/v %, 72 hours, 20 grains): 0; Germinated grains (Number) (unpolished rice; mineral 2.0 w/v %, saccharide 1 w/v %, 96 hours, 20 grains): 0; Germinated grains (Number) (unpolished rice; mineral 2.0 w/v %, saccharide 1 w/v %, 120 hours, 20 grains): 0
